For the experiment, the target named is Human Cot (Homo sapiens (Human), UniProt P41279). Description: High Throughput Cot Biochemical Assay.
Setting [1] is: IC50 HTRF, Cot HTRF (TR-FRET) biochemical assay.
The mark [2] stands for this setting: IC50 HTRF, Cot HTRF (TR-FRET KinEASE) biochemical assay, 400 μM ATP.

SMILES strings stand for the structures. Read-outs that look alike come from different tables or passages of the source.

In general, IC50 refers to the concentration that inhibits the measured activity by half.

Sequence of Human Cot (P41279 30-397): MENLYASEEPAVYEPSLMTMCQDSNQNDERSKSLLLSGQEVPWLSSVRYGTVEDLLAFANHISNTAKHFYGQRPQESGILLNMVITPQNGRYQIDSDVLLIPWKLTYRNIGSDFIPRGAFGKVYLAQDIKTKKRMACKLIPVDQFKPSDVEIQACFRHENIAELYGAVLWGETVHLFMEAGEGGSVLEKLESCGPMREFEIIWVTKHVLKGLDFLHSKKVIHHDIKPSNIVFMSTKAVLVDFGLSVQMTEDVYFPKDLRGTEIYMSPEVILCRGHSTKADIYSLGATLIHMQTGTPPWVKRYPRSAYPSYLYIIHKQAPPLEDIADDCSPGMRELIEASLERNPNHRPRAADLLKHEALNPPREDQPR

The compound `Cc1ncccc1[C@H](Nc1cc(Cl)c2ncc(C#N)c(Nc3ccc(F)c(Cl)c3)c2c1)c1cn(C(C)C)nn1` [Example 282, (S)-8-chloro-4-((3-chloro-4-fluorophenyl)amino)-6-(((1-isopropyl-1H-1,2,3-triazol-4-yl)(2-methylpyridin-3-yl)methyl)amino)-quinoline-3-carboni trile] showed an IC50 under setting [1] of 3 nM. Under setting [2], `CC(C)(CNc1c(C#N)cnc2c(C#N)cc(N[C@H](c3cn(C4(C(F)F)CC4)nn3)c3ccc(F)c4ncccc34)cc12)C(F)(F)F` [Example 815, (S)-6-(((1-{1-(difluoromethyl)-cyclopropyl)-1H-1,2,3-triazol-4-yl)(8-fluoroquinolin-5-yl)methyl)amino)-4-((3,3,3-trifluoro-2,2-dimethylpropyl)amino)quinoline-3,8-dicarbonitrile] displayed an IC50 of 3 nM. Consider `Cc1nc(F)ccc1[C@H](Nc1cc(Cl)c2ncc(C#N)c(NCC(C)(C)C)c2c1)c1cn(C(F)(F)CO)nn1` [Example 584, (S)-8-chloro-6-(((1-(i, 1-difluoro-2-hydroxyethyl)-1H-1,2,3-triazol-4-yl)(6-fluoro-2-methylpyridin-3-yl)methyl)amino)-4-(neopentylamino)quinoline-3-carbonitrile], for which the IC50 (read-out: IC50 HTRF, Cot HTRF (TR-FRET) biochemical assay) was determined as 2 nM.

With `Cc1nc(F)ccc1[C@H](Nc1cc(Cl)c2ncc(C#N)c(NCC(C)(C)C)c2c1)c1nnn(C2(C)CC2)c1F` [Example 947, (S)-8-chloro-6-(((5-fluoro-1-(1-methylcyclopropyl)-1H-1,2,3-triazol-4-yl)(6-fluoro-2-methyl-pyridin-3-yl)methyl)amino)-4-(neopentylamino)quinoline-3-carbonitrile], the IC50 under setting [2] came out at 3 nM. `N#Cc1cnc2c(Cl)cc(N[C@H](c3cn(CCO)nn3)c3cnc(Cl)cc3Cl)cc2c1Nc1ccc(F)c(Cl)c1` [Example 330, (S)-8-chloro-4-((3-chloro-4-fluorophenyl)amino)-6-(((4,6-dichloropyridin-3-yl)(1-(2-hydroxy-ethyl)-1H-1,2,3-triazol-4-yl)methyl)-amino)quinoline-3-carbonitrile] yielded an IC50 under setting [1] of 59 nM.

`CC(C)(C)OC(=O)N1CCC(n2cc([C@@H](Nc3cc(Cl)c4ncc(C#N)c(Nc5ccc(F)c(Cl)c5)c4c3)c3ccsc3)nn2)CC1` [Example 394, tert-butyl (S)-4-(4-(((8-chloro-4-((3-chloro-4-fluorophenyl)amino)-3-cyanoquinolin-6-yl)amino)(thiophen-3-yl)methyl)-1H-1,2,3-triazol-1-yl)piperidine-1-carboxylate]: under setting [1], half-maximal inhibition (IC50) required 147 nM. With `Cn1cc(C(Nc2cc(Cl)c3ncc(C#N)c(Nc4ccc(F)c(Cl)c4)c3c2)c2cccnc2)nn1` (stereo not drawn) [Example 395, 8-chloro-4-((3-chloro-4-fluoro-phenyl)amino)-6-(((1-methyl-1H-1,2,3-triazol-4-yl)(pyridin-3-yl)methyl)amino)quinoline-3-carbonitrile], the IC50 under setting [1] was found to be 4 nM.

Consider `CC(C)(C)CNc1c(C#N)cnc2c(C#N)cc(N[C@H](c3cn(C4(C(F)F)CC4)nn3)c3cccc4ncsc34)cc12` [Example 424, (S)-6-((benzo[d]thiazol-7-yl(1-(1-(difluoromethyl)cyclopropyl)-1H-1,2,3-triazol-4-yl)methyl)amino)-4-(neopentylamino)quinoline-3,8-dicarbonitrile], for which the IC50 under setting [1] turned out to be 2 nM. For `CC(C)(C)CNc1c(C#N)cnc2c(Cl)cc(N[C@H](c3cn(C4(C(F)F)CC4)nn3)c3ccc(F)c4ncccc34)cc12` [Example 653, (S)-8-chloro-6-(((1-(1-(difluoromethyl)cyclopropyl)-1H-1,2,3-triazol-4-yl)(8-fluoroquinolin-5-yl)methyl)amino)-4-(neopentylamino)quinoline-3-carbonitrile], half-maximal inhibition under setting [1] (IC50) required 4 nM. As to `Cn1ccc2c([C@H](Nc3cc(Cl)c4ncc(C#N)c(NCC(C)(C)C(F)(F)F)c4c3)c3cn(C4(C5CC5)CC4)nn3)cccc2c1=O` [Example 783, (S)-6-(((1-([1,1′-bi(cyclopropan)]-1-yl)-1H-1,2,3-triazol-4-yl)(2-methyl-1-oxo-1,2-dihydroisoquinolin-5-yl)methyl)amino)-8-chloro-4-((3,3,3-trifluoro-2,2-dimethylpropyl)amino)quinoline-3-carbonitrile], the IC50 under setting [1] came to 2 nM. `CC(C)(C)CNc1c(C#N)cnc2c(C#N)cc(N[C@H](c3cn(C4(C(F)(F)F)CC4)nn3)c3cccc4ccncc34)cc12` [Example 535, (S)-6-((isoquinolin-8-yl(1-(1-(trifluoro-methyl)cyclopropyl)-1H-1,2,3-triazol-4-yl)methyl)amino)-4-(neopentylamino)-quinoline-3,8-dicarbonitrile]: the IC50 under setting [1] is 2 nM. `Cc1nc(F)ccc1[C@H](Nc1cc(Cl)c2ncc(C#N)c(NCC(C)(C)C)c2c1)c1cn(C2(C(N)=O)CCC2)nn1` [Example 478, (S)-1-(4-(((8-chloro-3-cyano-4-(neopentylamino)quinolin-6-yl)amino)(6-fluoro-2-methylpyridin-3-yl)methyl)-1H-1,2,3-triazol-1-yl)cyclobutane-1-carboxamide] came in with an IC50 under setting [1] of 1 nM. Regarding `Cc1nc(F)ccc1[C@H](Nc1cc(Cl)c2ncc(C#N)c(NCC(C)(C)C)c2c1)c1nnn(C23CC(C2)C3)c1F` [Example 951, (S)-6-(((1-(bicyclo[1.1.1]pentan-1-yl)-5-fluoro-1H-1,2,3-triazol-4-yl)(6-fluoro-2-methylpyridin-3-yl)methyl)amino)-8-chloro-4-(neopentylamino)quinoline-3-carbonitrile], the IC50 under setting [2] was 9 nM. Regarding `CC(C)n1cc([C@@H](Nc2cc(Cl)c3ncc(C#N)c(Nc4ccc(F)c(Cl)c4)c3c2)c2cncn2C)nn1` [Example 311, (S)-8-chloro-4-((3-chloro-4-fluorophenyl)amino)-6-(((1-isopropyl-1H-1,2,3-triazol-4-yl)(1-methyl-1H-imidazol-5-yl)methyl)amino)quinoline-3-carbonitrile], 30 nM corresponded to half-maximal inhibition under setting [1] (IC50). Consider `N#Cc1cnc2c(Cl)cc(N[C@@H](c3cccnc3)c3cn(CCO)nn3)cc2c1Nc1ccc(F)c(Cl)c1` [Example 336, (S)-8-chloro-4-((3-chloro-4-fluoro-phenyl)amino)-6-(((1-(2-hydroxyethyl)-1H-1,2,3-triazol-4-yl)(pyridin-3-yl)methyl)amino)quinoline-3-carbonitrile], for which 2 nM corresponded to half-maximal inhibition under setting [1] (IC50). The compound `Cn1ccc2c([C@H](Nc3cc(C#N)c4ncc(C#N)c(NCC(C)(C)C)c4c3)c3cn(C4(C(F)F)CC4)nn3)ccnc21` [Example 873, (S)-6-(((1-(1-(difluoromethyl)cyclopropyl)-1H-1,2,3-triazol-4-yl)(1-methyl-1H-pyrrolo[2,3-b]pyridin-4-yl)methyl)amino)-4-(neopentylamino)quinoline-3,8-dicarbonitrile] gave an IC50 under setting [2] of 5 nM. `N#Cc1cnc2c(Cl)cc(NC(c3cccnc3)c3cn(C4CCN(C(=O)OCc5ccccc5)CC4)nn3)cc2c1Nc1ccc(F)c(Cl)c1` (stereo not drawn) [Example 404, benzyl 4-(4-(((8-chloro-4-((3-chloro-4-fluorophenyl)amino)-3-cyanoquinolin-6-yl)amino)(pyridin-3-yl)methyl)-1H-1,2,3-triazol-1-yl)piperidine-1-carboxylate] gave an IC50 under setting [1] of 232 nM.

On to `Cc1nc(F)ccc1[C@H](Nc1cc(Cl)c2ncc(C#N)c(NCC(C)(C)C)c2c1)c1cn(C2(C#N)CC2)nn1` [Example 476, (S)-8-chloro-6-(((1-(1-cyanocyclopropyl)-1H-1,2,3-triazol-4-yl)(6-fluoro-2-methylpyridin-3-yl)methyl)amino)-4-(neopentylamino)-quinoline-3-carbonitrile], for which the IC50 under setting [1] turned out to be 3 nM. Under setting [1], `N#Cc1cnc2c(Cl)cc(NC(c3cccnc3)c3cn([C@@H]4CCNC4)nn3)cc2c1Nc1ccc(F)c(Cl)c1` (stereo partly drawn) [Example 401, 8-chloro-4-((3-chloro-4-fluoro-phenyl)amino)-6-((pyridin-3-yl(1-((R)-pyrrolidin-3-yl)-1H-1,2,3-triazol-4-yl)methyl)amino)quinoline-3-carbonitrile] had an IC50 of 10 nM. `Cc1nc(F)ccc1[C@H](Nc1cc(Cl)c2ncc(C#N)c(NCC(C)(C)C(F)(F)F)c2c1)c1nnn(C2CC2)c1F` [Example 958, (S)-8-chloro-6-(((1-cyclopropyl-5-fluoro-1H-1,2,3-triazol-4-yl)(6-fluoro-2-methylpyridin-3-yl)methyl)amino)-4-((3,3,3-trifluoro-2,2-dimethylpropyl)amino)quinoline-3-carbonitrile] showed an IC50 under setting [2] of 2 nM.

`N#Cc1cnc2c(Cl)cc(N[C@H](c3cn(C4CCNCC4)nn3)c3sccc3Cl)cc2c1Nc1ccc(F)c(Cl)c1` [Example 387, (R)-8-chloro-4-((3-chloro-4-fluoro-phenyl)amino)-6-(((3-chlorothiophen-2-yl)(1-(piperidin-4-yl)-1H-1,2,3-triazol-4-yl)methyl)amino)quinoline-3-carbonitrile]: the IC50 under setting [1] was found to be 18 nM. For the compound `[2H]C([2H])(Nc1c(C#N)cnc2c(Cl)cc(N[C@@]([2H])(c3ccc(F)nc3)c3cn(C4CC4)nn3)cc12)C(C)(C)C` [Example 112, (S)-8-chloro-6-(((1-cyclopropyl-1H-1,2,3-triazol-4-yl)(6-fluoropyridin-3-yl)methyl-d)amino)-4-((2,2-dimethylpropyl-1,1-d2)amino)quinoline-3-carbonitrile], the IC50 under setting [1] was 2 nM.

In turn, `N#Cc1cnc2c(Cl)cc(N[C@H](c3cn(C4COC4)nn3)c3cc(Br)cnc3Cl)cc2c1Nc1ccc(F)c(Cl)c1` [Example 320, (S)-6-(((5-bromo-2-chloropyridin-3-yl)(1-(oxetan-3-yl)-1H-1,2,3-triazol-4-yl)methyl)amino)-8-chloro-4-((3-chloro-4-fluorophenyl)amino)quinoline-3-carbonitrile] registered an IC50 under setting [1] of 60 nM.

`Cn1cnc2cccc([C@H](Nc3cc(Cl)c4ncc(C#N)c(NCC(C)(C)C)c4c3)c3cn(C4(C(F)F)CC4)nn3)c21` [Example 499, (S)-8-chloro-6-(((1-(1-(difluoromethyl)-cyclopropyl)-1H-1,2,3-triazol-4-yl)(1-methyl-1H-benzo[d]imidazol-7-yl)methyl)amino)-4-(neopentylamino)-quinoline-3-carbonitrile] yielded an IC50 under setting [1] of 3 nM.

Values taken from patent publication US11066414B2, “Cot modulators and methods of use thereof” (Gilead Sciences, Inc., priority 2015, dated 2021).
